In patent publication US9255100B2 (BAYER INTELLECTUAL PROPERTY GMBH, priority 2010, dated 2016):

Each molecule was assayed against T1, N-terminally GST-tagged human full length recombinant Mps-1 kinase (Homo sapiens, UniProt P33981) (assay: Mps-1 kinase assay (TR-FRET)). Conditions: Mps1 IC50 [nM], 10 μM ATP, 1 μM peptide substrate, 60 min at 22° C.
T1 construct: N-terminally GST-tagged human full length recombinant Mps-1 kinase; purchased Invitrogen, Karslruhe, Germany PV4071
T1 sequence (P33981 1-857): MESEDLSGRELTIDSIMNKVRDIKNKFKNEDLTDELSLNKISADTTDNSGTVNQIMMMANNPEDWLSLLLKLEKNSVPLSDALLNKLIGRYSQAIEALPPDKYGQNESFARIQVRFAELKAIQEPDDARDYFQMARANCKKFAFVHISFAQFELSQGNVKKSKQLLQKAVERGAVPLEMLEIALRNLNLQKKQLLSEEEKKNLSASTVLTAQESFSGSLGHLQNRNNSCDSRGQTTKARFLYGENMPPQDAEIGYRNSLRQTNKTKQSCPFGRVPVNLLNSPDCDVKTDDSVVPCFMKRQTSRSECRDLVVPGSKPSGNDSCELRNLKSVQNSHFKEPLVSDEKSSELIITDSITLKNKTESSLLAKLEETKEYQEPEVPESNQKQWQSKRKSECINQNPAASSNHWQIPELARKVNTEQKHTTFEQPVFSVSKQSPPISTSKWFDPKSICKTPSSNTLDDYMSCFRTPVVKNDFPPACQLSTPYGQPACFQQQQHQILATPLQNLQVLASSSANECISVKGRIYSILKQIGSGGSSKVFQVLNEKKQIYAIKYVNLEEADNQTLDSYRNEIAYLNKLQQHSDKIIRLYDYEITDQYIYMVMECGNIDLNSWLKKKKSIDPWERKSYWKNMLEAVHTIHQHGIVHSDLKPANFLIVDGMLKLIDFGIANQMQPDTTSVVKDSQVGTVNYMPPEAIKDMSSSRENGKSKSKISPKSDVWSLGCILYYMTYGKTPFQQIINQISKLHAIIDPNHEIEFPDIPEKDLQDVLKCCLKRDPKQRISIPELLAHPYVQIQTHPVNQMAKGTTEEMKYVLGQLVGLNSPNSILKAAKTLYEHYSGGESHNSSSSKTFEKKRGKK
Format: biochemical
Procedure, shortened: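 Next, Eu-labelled anti-phospho(Ser/Thr) antibody and SA-XLent bind for 1 h at 22° C. Finally, energy transfer quantifies phosphorylated product.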

Row | SMILES | IC50 [nM]
1 | Cc1cc(-c2cnc3c(NCC4CCN(C)CC4)cc(Oc4cccnc4)nn23)ccc1C(=O)NC1CC1 [Example 527, N-cyclopropyl-2-methyl-4-[8-{[(1-methylpiperidin-4-yl)methyl]amino}-6-(pyridin-3-yloxy)imidazo [1,2-b]pyridazin-3-yl]benzamide] | 0.6
2 | CNc1cc(Oc2cccc(F)c2F)nn2c(-c3ccc(C(=O)NC4CC4)c(C)c3)cnc12 [Example 528, N-cyclopropyl-4-[6-(2,3-difluorophenoxy)-8-(methylamino)imidazo[1,2-b]pyridazin-3-yl]-2-methylbenzamide] | 0.7
3 | CNc1cc(Oc2ccc(F)c(F)c2)nn2c(-c3ccc(C(=O)NC4CC4)c(C)c3)cnc12 [Example 529, N-cyclopropyl-4-[6-(3,4-difluorophenoxy)-8-(methylamino)imidazo [1,2-b]pyridazin-3-yl]-2-methylbenzamide] | 0.4
4 | CNc1cc(Oc2cc(F)ccc2C)nn2c(-c3ccc(C(=O)NC4CC4)c(C)c3)cnc12 [Example 530, N-cyclopropyl-4-[6-(5-fluoro-2-methylphenoxy)-8-(methylamino)imidazo [1,2-b]pyridazin-3-yl]-2-methylbenzamide] | 0.6
5 | CNc1ccccc1Oc1cc(NC)c2ncc(-c3ccc(C(=O)NC4CC4)c(C)c3)n2n1 [Example 531, N-cyclopropyl-2-methyl-4-{8-(methylamino)-6-[2-(methylamino)phenoxy]imidazo[1,2-b]pyridazin-3-yl} benzamide] | 14.8
6 | CNc1cc(N(C)c2ccccc2O)nn2c(-c3ccc(C(=O)NC4CC4)c(C)c3)cnc12 [Example 532, N-cyclopropyl-4-{6-[(2-hydroxyphenyl)(methyl)amino]-8-(methylamino)imidazo[1,2-b]pyridazin-3-yl}-2-methylbenzamide] | 0.2
7 | CNc1cc(Oc2cncc(F)c2)nn2c(-c3ccc(C(=O)NC4CC4)c(C)c3)cnc12 [Example 533, N-cyclopropyl-4-{6-[(5-fluoropyridin-3-yl)oxy]-8-(methylamino)imidazo [1,2-b]pyridazin-3-yl}-2-methylbenzamide] | 1.2
8 | CNc1cc(Oc2ccc(OC)cc2F)nn2c(-c3ccc(C(=O)NC4CC4)c(C)c3)cnc12 [Example 534, N-cyclopropyl-4-[6-(2-fluoro-4-methoxy-phenoxy)-8-(methyl-amino)imidazo[1,2-b]pyridazin-3-yl]-2-methylbenzamide] | 0.1
9 | CNc1cc(Oc2ccc(OC)c(F)c2)nn2c(-c3ccc(C(=O)NC4CC4)c(C)c3)cnc12 [Example 535, N-cyclopropyl-4-[6-(3-fluoro-4-methoxy-phenoxy)-8-(methyl-amino)imidazo[1,2-b]pyridazin-3-yl]-2-methylbenzamide] | 0.1
10 | Cc1ccc(F)cc1Oc1cc(NCCN2CCOCC2)c2ncc(-c3ccc(C(=O)NC4CC4)c(C)c3)n2n1 [Example 537, N-cyclopropyl-4-[6-(5-fluoro-2-methylphenoxy)-8-{[2-(morpholin-4-yl)ethyl]amino}imidazo[1,2-b]pyridazin-3-yl]-2-methylbenzamide] | 0.2
11 | CNc1ccccc1Oc1cc(NCCN2CCOCC2)c2ncc(-c3ccc(C(=O)NC4CC4)c(C)c3)n2n1 [Example 538, N-cyclopropyl-2-methyl-4-(6-[2-(methylamino)phenoxy]-8-{[2-(morpholin-4-yl)ethyl]amino}imidazo[1,2-b]pyridazin-3-yl)benzamide] | 0.8
12 | Cc1cc(-c2cnc3c(NCCN4CCOCC4)cc(N(C)c4ccccc4O)nn23)ccc1C(=O)NC1CC1 [Example 539, N-cyclopropyl-4-(6-[(2-hydroxy-phenyl)(methyl)amino]-8-{[2-(morpholin-4-yl)ethyl]amino}imidazo[1,2-b]pyridazin-3-yl)-2-methylbenzamide] | 0.2
13 | Cc1cc(-c2cnc3c(NCCN4CCOCC4)cc(Oc4ccc(F)c(F)c4)nn23)ccc1C(=O)NC1CC1 [Example 540, N-cyclopropyl-4-[6-(3,4-difluoro-phenoxy)-8-{[2-(morpholin-4-yl)ethyl]amino}imidazo[1,2-b]pyridazin-3-yl]-2-methyl-benzamide] | 0.1
14 | Cc1cc(-c2cnc3c(NCCN4CCOCC4)cc(Oc4cncc(F)c4)nn23)ccc1C(=O)NC1CC1 [Example 541, N-cyclopropyl-4-(6-[(5-fluoro-pyridin-3-yl)oxy]-8-{[2-(morpholin-4-yl)ethyl]amino}imidazo[1,2-b]pyridazin-3-yl)-2-methylbenzamide] | 0.4
15 | Cc1cc(-c2cnc3c(NCC4CN(C)C4)cc(Oc4cccc(F)c4F)nn23)ccc1C(=O)NC1CC1 [Example 543, N-cyclopropyl-4-[6-(2,3-difluorophenoxy)-8-{[(1-methylazetidin-3-yl)methyl]amino}imidazo[1,2-b]pyridazin-3-yl]-2-methylbenzamide] | 0.2
16 | Cc1cc(-c2cnc3c(NCC4CNC4)cc(Oc4cncc(F)c4)nn23)ccc1C(=O)NC1CC1 [Example 544, 4-{8-[(azetidin-3-ylmethyl)amino]-6-[(5-fluoropyridin-3-yl)oxy]imidazo[1,2-b]pyridazin-3-yl}-N-cyclopropyl-2-methylbenzamide] | 1.1
17 | Cc1ccc(F)cc1Oc1cc(NCC2CNC2)c2ncc(-c3ccc(C(=O)NC4CC4)c(C)c3)n2n1 [Example 545, 4-{8-[(azetidin-3-ylmethyl)amino]-6-(5-fluoro-2-methylphenoxy)imidazo[1,2-b]pyridazin-3-yl}-N-cyclopropyl-2-methylbenzamide] | 0.1
18 | Cc1cc(-c2cnc3c(NCCCN)cc(Oc4cccc(F)c4)nn23)ccc1C(=O)NC1CC1 [Example 546, 4-{8-[(3-aminopropyl)amino]-6-(3-fluorophenoxy)imidazo[1,2-b]pyridazin-3-yl}-N-cyclopropyl-2-methylbenzamide] | 0.1
19 | Cc1cc(-c2cnc3c(NCCCS(=O)(=O)O)cc(Oc4cccc(F)c4)nn23)ccc1C(=O)NC1CC1 [Example 547, 3-({3-[4-(cyclopropylcarbamoyl)-3-methylphenyl]-6-(3-fluorophenoxy)imidazo[1,2-b]pyridazin-8-yl}amino)propane-1-sulfonic acid] | 0.2
20 | Cc1cc(-c2cnc3c(NCCS(=O)(=O)O)cc(Oc4cccc(F)c4)nn23)ccc1C(=O)NC1CC1 [Example 548, 2-({3-[4-(cyclopropylcarbamoyl)-3-methylphenyl]-6-(3-fluorophenoxy)imidazo[1,2-b]pyridazin-8-yl}amino)ethanesulfonic acid] | 0.7
21 | Cc1cc(-c2cnc3c(NCCC(N)=O)cc(Oc4cccc(F)c4)nn23)ccc1C(=O)NC1CC1 [Example 549, 4-{8-[(3-amino-3-oxopropyl)amino]-6-(3-fluorophenoxy)imidazo[1,2-b]pyridazin-3-yl}-N-cyclopropyl-2-methyl-benzamide] | 0.2
22 | Cc1cc(-c2cnc3c(NCCC(F)(F)F)cc(Oc4cccc(F)c4)nn23)ccc1C(=O)O [Example 550, 4-{6-(3-fluorophenoxy)-8-[(3,3,3-trifluoropropyl)amino]imidazo[1,2-b]pyridazin-3-yl}-2-methylbenzoic acid] | 0.5
23 | CNC(=O)c1ccc(-c2cnc3c(NCCC(F)(F)F)cc(Oc4cccc(F)c4)nn23)cc1C [Example 551, 4-{6-(3-fluorophenoxy)-8-[(3,3,3-trifluoropropyl)amino]imidazo[1,2-b]pyridazin-3-yl}-N,2-dimethylbenzamide] | 0.2
